Experiments:
[1] = tested on: STAT5 transcriptional activity in Ba/F3 cells; test: IL3-stimulated STAT5 transcriptional activity, Renilla reporter Ba/F3 cells; settings: 4 h pretreatment, mIL3 30 ng/ml 16 h
MCF-7 cells = test: Real-time monitoring of 2D cell growth (IncuCyte); type: cell-based; settings: Homo sapiens, MCF7, 120 h; complete estrogenic media (10%FBS), 5 days, AUC
Description: (§1) To monitor long-term growth, human ER+ BC (T47-D, MCF-7, MCF-7/BUS), ER+ endometrial (Ishiwaka, High Point, NC, USA), or non-malignant breast (MCF-10A) cells were seeded at 3000–6000 cells per well. […] When indicated, cells were estrogen-deprived in a 10DCC-FBS supplemented medium for one week. […] Cytotoxicity was monitored by using YOYO-1 (Invitrogen, Waltham, MA, USA). Cell proliferation and cytotoxicity were monitored by sequential real-time microphotographs in an IncuCyte HD real-time imaging system (Essen BioScience, Hertfordshire, UK) for 5–10 days. The area under the curve (AUC) was then analyzed to know both the kinetics and dose-effect relationships. […] Next, cells were treated with VEH (0.05% DMSO) or test compounds for 5–10 days. Spheroid size and cell cytotoxicity were recorded with the Incucyte SX5 Live-Cell Analysis Instrument (Sartorius AG, Göttingen, Germany). To calculate the spheroid growth area, confluence measurements were taken considering the largest brightfield object area (µm^2). Cytotoxicity was monitored by using YOYO-1 (Essen Bioscience, Hertfordshire, UK).

T47D cells [2] = test: MTT cell viability assay; type: cell-based, human; settings: Homo sapiens, T47D, 72 h, 10%FBS growth media
Description: Straightforward, the tetrazolium salt 3-(4,5-methyltiazol-2yl-)-2,5diphenyl-tetrazolium bromide (MTT) (Applichen, Darmstadt, Germany) was added to cells, incubated for 2–4 h at 37 °C, and lysed in 10% SDS. The mitochondrial metabolization of the tetrazolium salt was determined by the analysis of the optical density at 595 nm, measured with the iMark microplate Reader (Bio–Rad, Irvine, CA, USA).

[3] = tested on: T47D estrogen-depleted cells; test: E2-induced proliferation of estrogen-depleted cells (AUC of growth kinetics); type: cell-based; settings: E2-depleted conditions
Description: as §1

[4] = tested on: STAT3 transcriptional activity in HEK293 cells; test: IL6-induced STAT3 transcriptional activity, Renilla reporter HEK-293 cells; settings: 4 h pretreatment, hIL6 10 ng/ml 16 h
[5] = tested on: ERα-mediated transcription (3xERE-luciferase), T47D-KBluc cells; test: ER-dependent transcriptional activity, 3xERE-luciferase reporter in T47D-KBluc cells; settings: until dropping to 20% Emax
T47D cells [6] = test: Cell cycle analysis by flow cytometry; type: cell-based, human; settings: 5 μM; 48h
Description: For cell cycle studies, unsynchronized T47D cells were seeded at 250,000 cells/well in RPMI (Biowest, Nuaillé, France) 10% FBS medium supplemented with L-glutamine (2 mM), HEPES (10 mM), sodium pyruvate (1 mM) and PEST. […] Cells were then washed in ice-cold PBS and fixed in cold 70% ethanol at −20 °C overnight. Then, the cell pellet was resuspended in FACs buffer (2 mM EDTA, 2% FBS in PBS) and incubated with Ki67-APC antibody (Miltenyi Biotec, Auburn, CA, USA) and DAPI (4′,6-diamidino-2-phenylindole; Sigma-Aldrich) for 20 min at room temperature. Finally, cells were washed and resuspended with FACs Buffer for cell cycle analyses. For apoptosis studies, an Annexin V-FITC Apoptosis Kit (Miltenyi Biotec) was used. Briefly, treated cells were collected in 100 μL of ice-cold AnnexinV binding buffer (10 mM HEPES pH 7.4, 140 mM NaCl, 2.5 mM CaCl2) containing 10 μL of Annexin-V FITC and incubated for 15 min at room temperature. After that, cells were washed with 1 mL binding buffer, sedimented at 300× g 10 min, and resuspended with 500 μL binding buffer containing 5 μL of propidium iodide (PI; 100 μg/mL) prior to acquisition in MACSQuant10 cytometer (Miltenyi Biotec) where 10,000 or 20,000 events were used for cell cycle and apoptosis analysis, respectively.

[7] = tested on: polyubiquitinated protein level in T47D cells; test: Immunoblotting; type: cell-based, human; settings: from 24 h to 72 h
Description: Then, they were washed with ice-cold PBS supplemented with 1 mM ortovanadate and lysed with RIPA buffer containing protease and phosphatase inhibitors (Thermo Fisher Scientific, Waltham, MA, USA). Equal protein amounts were analyzed by SDS–PAGE, and transferred to nitrocellulose membranes (Thermo Fisher Scientific, Waltham, MA, USA), blocked with Tris-buffered saline/0.05% Tween 20 (TBS-T) containing 5% blotto (Merck, Darmstadt, Germany) or 5% BSA for total and phosphorylated proteins, respectively. Immunoblotting was carried out with mouse anti-ERα F-10 (Santa Cruz Biotech, Santa Cruz, CA, USA), rabbit total anti-STAT5 (Cell Signaling Technology, Leiden, The Netherlands) or mouse anti-polyubiquitin (EMD Millipore, Burlington, MA, USA). After washing, membranes were incubated with horseradish peroxidase-conjugated secondary antibodies (Bio-Rad) for 1 h at room temperature. The β-actin antibody (Santa Cruz Biotech, CA, USA) was used as the loading control. Finally, protein bands were visualized by using Clarity™ Western ECL Substrate (Bio-Rad) in the ChemiDoc XRS system (Bio-Rad) and were analyzed with Quantity One software (Bio-Rad).

Row | SMILES | IC50, IL3-stimulated STAT5 transcriptional activity [1] | IC50 (MCF-7 cells) | IC50 (T47D cells [2]) | estrogenic effect on growth [3] | IC50, IL6-induced STAT3 transcriptional activity [4] | effect on E2-induced luciferase activity [5] | G2/S/M cells (T47D cells [6]) | effect on polyubiquitinated protein level [7]
1 | Cc1ccc(C2=CC(O)(c3ccccc3)N(Cc3ccccc3)C2=O)cc1C (centres unmarked) [compound 32, 1-benzyl-3-(3,4-dimethylphenyl)-5-hydroxy-5-phenyl-1H-pyrrol-2(5H)-one] | no activity | 1.52 ± 1.25 µM | 10.6 ± 0.58 µM | did not increase the growth of ER+ BC cells |  |  |  | 
2 | O=C1C(c2ccc([N+](=O)[O-])cc2)=CC(O)(c2ccccc2)N1Cc1ccccc1 (centres unmarked) [compound 35, 1-benzyl-5-hydroxy-3-(4-nitrophenyl)-5-phenyl-1H-pyrrol-2(5H)-one] |  | 4.3 ± 0.77 µM | 5.31 ± 0.47 µM | did not increase the growth of ER+ BC cells | inactive | reduced E2-induced luciferase activity | 16.52% | significantly increased polyubiquitinated protein level

From publication PMC9655618 (Cancers, 2022)
